Test results reported in US8618289B2 (Ambit Biosciences Corporation, priority 2008, dated 2013).
Counter-ions that a name gives are not always drawn.

Legend:
[1] = test system: MEK1 phosphorylation in the A375 human melanoma cell line; assay: cells; details: A-375, read-out: pMEK IC50
A375 cells = assay: cells; details: Homo sapiens, A-375, read-out: A375 Viability EC50
RAF kinases [2] = biological target: RAF kinases (Homo sapiens, UniProt P04049); assay: biochemical
RAF kinases [3] = biological target: RAF kinases (Homo sapiens, UniProt P15056); assay: biochemical
Chain of RAF kinases (Homo sapiens, UniProt P15056) (P15056 whole entry): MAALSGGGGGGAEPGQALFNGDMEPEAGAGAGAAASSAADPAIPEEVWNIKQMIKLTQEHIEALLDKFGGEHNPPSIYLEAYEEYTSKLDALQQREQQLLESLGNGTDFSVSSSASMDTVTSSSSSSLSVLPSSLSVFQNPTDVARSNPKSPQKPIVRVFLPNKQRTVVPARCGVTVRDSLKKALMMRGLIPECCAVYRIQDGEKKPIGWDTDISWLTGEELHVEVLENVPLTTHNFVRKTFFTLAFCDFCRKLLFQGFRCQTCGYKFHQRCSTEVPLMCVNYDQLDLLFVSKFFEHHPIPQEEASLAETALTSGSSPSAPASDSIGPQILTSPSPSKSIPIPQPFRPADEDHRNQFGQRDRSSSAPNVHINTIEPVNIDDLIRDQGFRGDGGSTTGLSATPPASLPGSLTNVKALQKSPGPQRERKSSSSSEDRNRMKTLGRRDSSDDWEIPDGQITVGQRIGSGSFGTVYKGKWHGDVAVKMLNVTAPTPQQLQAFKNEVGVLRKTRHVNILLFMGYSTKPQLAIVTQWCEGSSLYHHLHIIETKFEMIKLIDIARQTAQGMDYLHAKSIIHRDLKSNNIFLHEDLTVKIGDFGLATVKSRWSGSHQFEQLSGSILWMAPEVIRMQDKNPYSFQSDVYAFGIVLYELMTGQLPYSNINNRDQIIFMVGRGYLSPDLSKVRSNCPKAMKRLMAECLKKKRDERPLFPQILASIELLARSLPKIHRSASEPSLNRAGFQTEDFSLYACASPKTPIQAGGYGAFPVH

Chain of RAF kinases (Homo sapiens, UniProt P04049) (P04049 whole entry): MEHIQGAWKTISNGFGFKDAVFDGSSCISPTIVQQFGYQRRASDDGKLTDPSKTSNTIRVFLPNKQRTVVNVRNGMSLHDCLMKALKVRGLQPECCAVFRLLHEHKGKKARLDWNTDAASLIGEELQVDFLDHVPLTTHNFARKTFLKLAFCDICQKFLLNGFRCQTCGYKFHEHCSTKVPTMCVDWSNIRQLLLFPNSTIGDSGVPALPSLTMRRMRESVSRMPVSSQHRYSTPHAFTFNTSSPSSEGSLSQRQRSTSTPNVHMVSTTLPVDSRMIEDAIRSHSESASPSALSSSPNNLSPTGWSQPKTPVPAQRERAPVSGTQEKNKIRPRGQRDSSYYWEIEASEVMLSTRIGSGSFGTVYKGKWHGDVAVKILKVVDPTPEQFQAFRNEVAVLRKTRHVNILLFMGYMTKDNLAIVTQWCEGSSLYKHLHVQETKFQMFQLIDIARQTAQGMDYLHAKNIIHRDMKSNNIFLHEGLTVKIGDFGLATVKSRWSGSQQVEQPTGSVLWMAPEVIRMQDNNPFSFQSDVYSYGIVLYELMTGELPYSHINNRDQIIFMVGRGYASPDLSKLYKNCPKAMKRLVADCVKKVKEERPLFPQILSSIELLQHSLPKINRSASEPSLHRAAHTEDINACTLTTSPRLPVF

Row | Structure (SMILES) | IC50 [1] [nM] | EC50 (A375 cells) [nM] | Kd (RAF kinases [2]) [nM] | Kd (RAF kinases [3]) [nM]
1 | COc1cc2ncnc(Oc3cccc(NC(=O)Nc4cc(C(C)(C)C)on4)c3)c2cc1OC [Ex 1, 1-(5-tert-butylisoxazol-3-yl)-3-(3-(6,7-dimethoxyquinazolin-4-yloxy)phenyl)urea] | < 250 | 500 to 1000 | 250 to 500 | –
2 | CCOc1cc2ncnc(Oc3cccc(NC(=O)Nc4cc(C(C)(C)C)on4)c3)c2cc1OC [Ex 6, 1-(5-tert-butylisoxazol-3-yl)-3-[3-(7-ethoxy-6-methoxyquinazolin-4-yloxy)phenyl]urea hydrochloride] | < 250 | 250 to 500 | 500 to 1000 | –
3 | COCCOc1cc2ncnc(Oc3cccc(NC(=O)Nc4cc(C(C)(C)C)on4)c3)c2cc1OC [Ex 7, 1-(5-tert-Butylisoxazol-3-yl)-3-{3-[6-methoxy-7-(2-methoxyethoxy)quinazolin-4-yloxy]phenyl}urea hydrochloride] | < 250 | 250 to 500 | 250 to 500 | 250 to 500
4 | COc1cc2ncnc(Oc3cc(NC(=O)Nc4cc(C(C)(C)C)on4)ccc3F)c2cc1OC [Ex 9, 1-(5-tert-butylisoxazol-3-yl)-3-(3-(6,7-dimethoxyquinazolin-4-yloxy)-4-fluorophenyl)urea] | < 250 | < 250 | 500 to 1000 | –
5 | CCOc1cc2c(Oc3cccc(NC(=O)Nc4cc(C(C)(C)C)on4)c3)ncnc2cc1OC [Ex 11, 1-(5-tert-butylisoxazol-3-yl)-3-(3-(6-ethoxy-7-methoxyquinazolin-4-yloxy)phenyl)urea] | < 250 | < 250 | 500 to 1000 | –
6 | COCCOc1cc2ncnc(Oc3cccc(NC(=O)Nc4cc(C(C)(C)C)on4)c3)c2cc1OCCOC [Ex 12, 1-{3-[6,7-bis(2-methoxyethoxy)quinazolin-4-yloxy]phenyl}-3-(5-tert-butylisoxazol-3-yl)urea hydrochloride] | < 250 | 250 to 500 | 250 to 500 | 500 to 1000
7 | CC(C)(C)c1cc(NC(=O)Nc2cccc(Oc3ncnc4cc5c(cc34)OCCO5)c2)no1 [Ex 14, 1-(5-tert-butylisoxazol-3-yl)-3-[3-(7,8-dihydro-[1,4]dioxino[2,3-g]quinazolin-4-yloxy)phenyl]urea hydrochloride] | 500 to 1000 | > 1000 | 250 to 500 | 500 to 1000
8 | COCCOc1cc2c(Oc3cccc(NC(=O)Nc4cc(C(C)(C)C)on4)c3)ncnc2cc1OC [Ex 15, 1-(5-tert-butylisoxazol-3-yl)-3-{3-[7-methoxy-6-(2-methoxyethoxy)quinazolin-4-yloxy]phenyl}urea hydrochloride] | < 250 | < 250 | 250 to 500 | 250 to 500
9 | COc1cc2ncnc(Oc3cccc(NC(=O)Nc4cc(C(C)(C)C)on4)c3)c2cc1OCCN1CCC(CO)CC1 [Ex 17, 1-(5-tert-butylisoxazol-3-yl)-3-(3-(6-(2-(4-(hydroxymethyl)piperidin-1-yl)ethoxy)-7-methoxyquinazolin-4-yloxy)phenyl)urea] | 250 to 500 | 250 to 500 | 500 to 1000 | 500 to 1000
10 | COc1cc2ncnc(Oc3cccc(NC(=O)Nc4cc(C(C)(C)C)on4)c3)c2cc1OCCN1CCN(C)CC1 [Ex 18, 1-(5-tert-butylisoxazol-3-yl)-3-(3-(7-methoxy-6-(2-(4-methylpiperazin-1-yl)ethoxy)quinazolin-4-yloxy)phenyl)urea] | < 250 | 250 to 500 | 500 to 1000 | 250 to 500
11 | COc1cc2ncnc(Oc3cccc(NC(=O)Nc4cc(C(C)(C)C)on4)c3)c2cc1OCCN1CCN(CCO)CC1 [Ex 19, 1-(5-tert-butylisoxazol-3-yl)-3-(3-(6-(2-(4-(2-hydroxyethyl)piperazin-1-yl)ethoxy)-7-methoxyquinazolin-4-yloxy)phenyl)urea] | < 250 | 250 to 500 | 250 to 500 | 250 to 500
12 | COc1cc2ncnc(Oc3cccc(NC(=O)Nc4cc(C(C)(C)C)on4)c3)c2cc1OCCN1CCOCC1 [Ex 20, 1-(5-tert-butylisoxazol-3-yl)-3-(3-(7-methoxy-6-(2-morpholinoethoxy)quinazolin-4-yloxy)phenyl)urea] | < 250 | < 250 | 250 to 500 | 250 to 500
13 | COc1cc2ncnc(Oc3cccc(NC(=O)Nc4cc(C(C)(C)C)on4)c3)c2cc1OCCCN1CCN(C)CC1 [Ex 21, 1-(5-tert-butylisoxazol-3-yl)-3-(3-(7-methoxy-6-(3-(4-methylpiperazin-1-yl)propoxy)quinazolin-4-yloxy)phenyl)urea] | < 250 | 250 to 500 | 250 to 500 | 250 to 500
14 | COc1cc2ncnc(Oc3cccc(NC(=O)Nc4cc(C(C)(C)C)on4)c3)c2cc1OCCCN1CCCCC1 [Ex 23, 1-(5-tert-butylisoxazol-3-yl)-3-(3-(7-methoxy-6-(3-(piperidin-1-yl)propoxy)quinazolin-4-yloxy)phenyl)urea] | < 250 | 500 to 1000 | 500 to 1000 | 500 to 1000
15 | COc1cc2ncnc(Oc3cccc(NC(=O)Nc4cc(C(C)(C)C)on4)c3)c2cc1OCCCN1CCC(CO)CC1 [Ex 24, 1-(5-tert-butylisoxazol-3-yl)-3-(3-(6-(3-(4-(hydroxymethyl)piperidin-1-yl)propoxy)-7-methoxyquinazolin-4-yloxy)phenyl)urea] | < 250 | 500 to 1000 | 500 to 1000 | 500 to 1000
16 | COc1cc2ncnc(Oc3cccc(NC(=O)Nc4cc(C(C)(C)C)on4)c3)c2cc1OCCCN1CCN(S(C)(=O)=O)CC1 [Ex 25, 1-(5-tert-butylisoxazol-3-yl)-3-(3-(7-methoxy-6-(3-(4-(methylsulfonyl)piperazin-1-yl)propoxy)quinazolin-4-yloxy)phenyl)urea] | < 250 | < 250 | 250 to 500 | 250 to 500
17 | COc1cc2c(Oc3cccc(NC(=O)Nc4cc(C(C)(C)C)on4)c3)ncnc2cc1OCCCN1CCOCC1 [Ex 27, 1-(5-tert-butylisoxazol-3-yl)-3-(3-(6-methoxy-7-(3-morpholinopropoxy)quinazolin-4-yloxy)phenyl)urea] | < 250 | < 250 | 250 to 500 | 250 to 500
18 | COc1cc2c(Oc3cccc(NC(=O)Nc4cc(C(C)(C)C)on4)c3)ncnc2cc1OCCCN1CCC(CO)CC1 [Ex 29] | < 250 | < 250 | 250 to 500 | 250 to 500
19 | COc1cc2c(Oc3cccc(NC(=O)Nc4cc(C(C)(C)C)on4)c3)ncnc2cc1OCCCN1CCN(CCO)CC1 [Ex 30, 1-(5-tert-butylisoxazol-3-yl)-3-(3-(7-(3-(4-(2-hydroxyethyl)piperazin-1-yl)propoxy)-6-methoxyquinazolin-4-yloxy)phenyl)urea] | < 250 | < 250 | 250 to 500 | –
20 | COc1cc2c(Oc3cccc(NC(=O)Nc4cc(C(C)(C)C)on4)c3)ncnc2cc1OCCCN1CCC(O)C1 (stereo not drawn) [Ex 31, 1-(5-tert-butyl-isoxazol-3-yl)-3-(3-{7-[3-(3-hydroxy-pyrrolidin-1-yl)-propoxy]-6-methoxy-quinazolin-4-yloxy}-phenyl)-urea] | < 250 | < 250 | 250 to 500 | 250 to 500
21 | COc1cc2c(Oc3cccc(NC(=O)Nc4cc(C(C)(C)C)on4)c3)ncnc2cc1OCCCN1CCN(S(C)(=O)=O)CC1 [Ex 32, 1-(5-tert-butylisoxazol-3-yl)-3-(3-(6-methoxy-7-(3-(4-(methylsulfonyl)piperazin-1-yl)propoxy)quinazolin-4-yloxy)phenyl)urea] | < 250 | 250 to 500 | 250 to 500 | 500 to 1000
22 | COc1cc2c(Oc3cccc(NC(=O)Nc4cc(C(C)(C)C)on4)c3)ncnc2cc1OCCCN1CC[C@H](O)C1 [Ex 33, (S)-1-(5-tert-butylisoxazol-3-yl)-3-(3-(7-(3-(3-hydroxypyrrolidin-1-yl)propoxy)-6-methoxyquinazolin-4-yloxy)phenyl)urea] | < 250 | < 250 | 250 to 500 | 250 to 500
23 | COc1cc2c(Oc3cccc(NC(=O)Nc4cc(C(C)(C)C)on4)c3)ncnc2cc1OCCCN1CC[C@@H](O)C1 [Ex 34, (R)-1-(5-tert-Butylisoxazol-3-yl)-3-(3-(7-(3-(3-hydroxypyrrolidin-1-yl)propoxy)-6-methoxyquinazolin-4-yloxy)phenyl)urea] | < 250 | > 1000 | 250 to 500 | 250 to 500
24 | COCCOc1ccc2ncnc(Oc3cccc(NC(=O)Nc4cc(C(C)(C)C)on4)c3)c2c1 [Ex 40, 1-(5-tert-butylisoxazol-3-yl)-3-(3-(6-(2-methoxyethoxy)quinazolin-4-yloxy)phenyl)urea] | < 250 | 500 to 1000 | 250 to 500 | –
25 | COc1cc2ncnc(Sc3cccc(NC(=O)Nc4cc(C(C)(C)C)on4)c3)c2cc1OCCN1CCCCC1 [Ex 65, 1-(5-tert-butylisoxazol-3-yl)-3-(3-(7-methoxy-6-(2-(piperidin-1-yl)ethoxy)quinazolin-4-ylthio)phenyl)urea] | 250 to 500 | > 1000 | 500 to 1000 | –
26 | COc1cc2ncnc(Oc3cccc(NC(=O)Nc4cc(CN5CCOCC5)cc(C(F)(F)F)c4)c3)c2cc1OC [Ex 151, 1-(3-(6,7-dimethoxyquinazolin-4-yloxy)phenyl)-3-(3-(morpholinomethyl)-5-(trifluoromethyl)phenyl)urea] | > 1000 | > 1000 | 250 to 500 | –
27 | COc1cc2ncnc(Oc3cccc(NC(=O)Nc4cc(C(C)(C)C)nn4C)c3)c2cc1OC [Ex 158, 1-(3-tert-butyl-1-methyl-1H-pyrazol-5-yl)-3-(3-(6,7-dimethoxyquinazolin-4-yloxy)phenyl)urea] | 250 to 500 | > 1000 | 500 to 1000 | –
28 | COc1cc2ncnc(Sc3cccc(NC(=O)Nc4cc(C(C)(C)C#N)nn4-c4ccccc4)c3)c2cc1OC [Ex 309, 1-(3-(2-cyanopropan-2-yl)-1-phenyl-1H-pyrazol-5-yl)-3-(3-(6,7-dimethoxyquinazolin-4-ylthio)phenyl)urea] | < 250 | – | 500 to 1000 | 500 to 1000
